# Measured values taken from paper doi:10.1101/2024.12.25.630315 (bioRxiv, 2024).
# Tests used:
# Nectin-4 = biological target: T1, Nectin-4 (Homo sapiens, UniProt Q96NY8); assay: In vivo Nectin-4 engagement by EV, HT1376 tumors (ex vivo biodistribution of [^68Ga]AJ647); design: species or system mouse; settings: NSG mice, single i.v. dose of EV (15 mg/kg in text, 20 mpk in legend/methods) 24 hours before tracer, ex vivo biodistribution 60 min, n=5, P < 0.0001
# T1 construct: host or cells: HT1376, SCaBER, T24, RT112, UC9, UC14 urothelial carcinoma cells; HT1376 xenografts in NSG mice
# T1 sequence (Q96NY8 32-510): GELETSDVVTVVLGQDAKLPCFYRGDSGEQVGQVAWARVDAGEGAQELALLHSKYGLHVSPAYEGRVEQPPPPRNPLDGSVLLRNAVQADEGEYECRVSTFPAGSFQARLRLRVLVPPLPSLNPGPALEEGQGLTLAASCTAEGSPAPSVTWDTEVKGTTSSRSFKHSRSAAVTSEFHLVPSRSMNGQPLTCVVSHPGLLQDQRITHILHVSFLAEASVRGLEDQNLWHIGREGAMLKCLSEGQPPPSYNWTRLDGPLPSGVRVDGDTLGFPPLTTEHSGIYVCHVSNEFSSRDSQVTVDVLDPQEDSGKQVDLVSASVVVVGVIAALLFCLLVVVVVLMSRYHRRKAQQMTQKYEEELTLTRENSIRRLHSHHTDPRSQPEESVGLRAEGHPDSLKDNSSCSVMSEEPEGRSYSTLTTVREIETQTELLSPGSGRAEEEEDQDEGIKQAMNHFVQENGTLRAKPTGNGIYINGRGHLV
# Method: To validate imaging studies, ex vivo biodistribution studies were conducted in mice with tumors of size 100–200 mm^3. Mice received ~50 μCi (1.85 MBq) of [^68Ga]AJ647 in […] of 5% ethanol in saline intravenously and mice were sacrificed at 5–180 min after [^68Ga]AJ647 injection for pharmacokinetic evaluation (n=4 per timepoint). In all other studies, 60 min time-point was chosen. Selected tissues (Blood, Skin, Muscle, Bone, Salivary glands, Tumor, Lungs, Heart, Liver, Pancreas, Spleen, Kidneys, Bladder, Testicles) were collected, weighed, counted, and their %IA/g values calculated as described previously (PMID: 37793856). For EV pharmacodynamics studies, fewer organs were harvested to accommodate more number of mice.
# Male NSG mice were implanted subcutaneously with HT1376 and SCaBER cells (4 million each) on the right and left rostral end, respectively. On day 25 after cell inoculation (average tumor volume=200±35 mm^3), mice were randomized and treated with a single dose of either saline or 20 mpk EV ADC injected intravenously (volume not exceeding 300 μL) or with 200 μL saline (n=7/group). 24 hours following the EV dose, [^68Ga]AJ647 PET scans (n=2/group) were acquired and ex vivo biodistribution (n=5/group) was performed using the protocols mentioned above.
# HT1376 tumors = assay: EV therapy response and PET target engagement, HT1376 xenografts; type: in vivo, mouse
# Method: Mice with tumor volume of ~100-150 mm^3 were injected with ~[…] (7.4 MBq) of [^68Ga]AJ647 in […] of 5% ethanol in saline intravenously and anesthetized under 2.5% isoflurane. PET-CT images were acquired at 60 minutes after radiotracer injection at 5 min/bed in an ARGUS small-animal PET/CT scanner (Sedecal, Madrid, Spain) as described (n=3 unless otherwise noted). PET-MR images were acquired on a simultaneous 7T Bruker PET-MR scanner. Dynamic imaging was conducted to evaluate pharmacokinetics of [^68Ga]AJ647. [^68Ga]AJ647 was injected (with help of catheter) after mice was anesthetized under 2.5% isoflurane on the equipment bed. All PET data were reconstructed using the two-dimensional ordered subsets-expectation maximization algorithm (2D-OSEM) and corrected for radioactive decay and dead time. The SUV values were calculated by finding percent of injected activity (%IA) based on a calibration factor obtained from a known radioactive quantity, then normalizing by mice weight. […] For change in accessible Nectin-4 levels following EV treatment, ΔSUV was calculated by subtracting baseline (pre-treatment) uptake from post-therapy uptake of [^68Ga]AJ647. Target engagement was quantified by normalizing this change by initial SUV in same subject controls. […] Mice body weight and tumor measurements were recorded until saline group tumors reached 1500 mm^3 average size. […] Briefly, the percentage change in volume relative to baseline: % tumor volume change (ΔVolt) = 100% × ((Vt -[…]). BestResponse was the lowest ΔVolt for t ≥ 10 days. For each time t, the average ΔVolt from t = 0 to t was calculated, with the BestAvgResponse defined as the lowest average ΔVolt for t ≥ 10 days. Modified response criteria (mRECIST), adapted from RECIST21, were as follows: mCR (BestResponse < -95%, BestAvgResponse < -40%), mPR (BestResponse < -50%, BestAvgResponse < -20%), mSD (BestResponse < 35%, BestAvgResponse < 30%), and mPD (all others). We defined mPD as non-responders (0 response) and stable disease or better as responders (1 response). […]
substance,measurement,setting,value
enfortumab vedotin [EV],reduction in [^68Ga]AJ647 uptake in EV-treated tumors compared to controls,Nectin-4,84%
same,share of mice with less than 50% target engagement,"HT1376 tumors; EV 6 and 15 mg/kg groups, day 6 PET",50%
same,"responders (mRECIST, stable disease or better)","HT1376 tumors; EV-treated mice with higher target engagement, irrespective of dose",7/8
same,"responders (mRECIST, stable disease or better)",HT1376 tumors; EV-treated mice with less than 30% target engagement,0/12
